Measurements published in patent publication US8357703B2, “Pyridines” (Hoffmann-La Roche Inc., priority 2009, dated 2013).

Biological target: T1, human GABA A α5β3γ2 receptor (Homo sapiens, UniProt P18507+P31644)
T1 construct: expressed in transfected cells; host or cells: HEK293 (transiently transfected), membranes
Test: [3H]flumazenil competition binding to HEK293 cells expressing human GABA A receptors
Conditions: competition for [3H]flumazenil (0.5 nM for α5); HEK293 cells expressing human (transiently transfected) receptors; means of two determinations; read-out: hKi GABA Aα5
Description: The affinity of compounds at GABA A receptor subtypes was measured by competition for [^3H]flumazenil (85 Ci/mmol; Roche) binding to HEK293 cells expressing rat (stably transfected) or human (transiently transfected) receptors of composition α1β3γ2, α2β3γ2, α3β3γ2 and α5β3γ2.
Cell pellets were suspended in Krebs-tris buffer (4.8 mM KCl, 1.2 mM CaCl2, 1.2 mM MgCl2, 120 mM NaCl, 15 mM Tris; pH 7.5; binding assay buffer), homogenized by polytron for ca. 20 sec on ice and centrifuged for 60 min at 4° C. (50000 g; Sorvall, rotor: SM24=20000 rpm). The cell pellets were resuspended in Krebs-tris buffer and homogenized by polytron for ca. 15 sec on ice. Protein was measured (Bradford method, Bio-Rad) and aliquots of 1 mL were prepared and stored at −80° C.
Radioligand binding assays were carried out in a volume of […] (96-well plates) which contained […] of cell membranes, [^3H]flumazenil at a concentration of 1 nM for α1, α2, α3 subunits and 0.5 nM for α5 subunits and the test compound in the range of […]. Nonspecific binding was defined by 10^−5 M diazepam and typically represented less than 5% of the total binding. Assays were incubated to equilibrium for 1 hour at 4° C. and harvested onto GF/C uni-filters (Packard) by filtration using a Packard harvester and washing with ice-cold wash buffer (50 mM Tris; pH 7.5). After drying, filter-retained radioactivity was detected by liquid scintillation counting. Ki values were calculated using Excel-Fit (Microsoft) and are the means of two determinations.
Representative test results, obtained by the above described assay measuring binding affinity to HEK293 cells expressing human (h) receptors, are shown in table 1 below.

Row | SMILES | Ki [nM]
1 | Cc1onc(N2CCCC2)c1COc1ccc(C(=O)NC2CCOCC2)cn1 [Example 41, 6-((5-methyl-3-pyrrolidin-1-yl-isoxazol-4-yl)methoxy)-N-(tetrahydro-pyran-4-yl)-nicotinamide] | 3.9
2 | CCCCc1noc(C)c1COc1ccc(C(=O)NC2CCOC2)cn1 (centres unmarked) [Example 14, 6-((3-Butyl-5-methyl-isoxazol-4-yl)methoxy)-N-(tetrahydro-furan-3-yl)-nicotinamide] | 5
3 | CCCCc1noc(C)c1COc1ccc(C(=O)NC(C)(C)CO)cn1 [Example 8, 6-((3-Butyl-5-methyl-isoxazol-4-yl)methoxy)-N-(2-hydroxy-1,1-dimethyl-ethyl)-nicotinamide] | 15.2
4 | CCCCc1noc(C)c1COc1ccc(C(=O)NC(C)C)cn1 [Example 5, 6-((3-Butyl-5-methyl-isoxazol-4-yl)methoxy)-N-isopropyl-nicotinamide] | 4.1
5 | CCCCc1noc(C)c1COc1ccc(C(=O)Nc2ccn(C)n2)cn1 [Example 24, 6-((3-Butyl-5-methyl-isoxazol-4-yl)methoxy)-N-(1-methyl-1H-pyrazol-3-yl)-nicotinamide] | 10.7
6 | CCCCc1noc(C)c1COc1ccc(C(=O)N[C@@H](C)C(F)(F)F)cn1 [Example 20, 6-((3-Butyl-5-methyl-isoxazol-4-yl)methoxy)-N—((S)-2,2,2-trifluoro-1-methyl-ethyl)-nicotinamide] | 7.5
7 | CCCCc1noc(C)c1COc1ccc(C(=O)NC2(C)CC2)cn1 [Example 21, 6-((3-Butyl-5-methyl-isoxazol-4-yl)methoxy)-N-(1-methyl-cyclopropyl)-nicotinamide] | 11.5
8 | CCCCc1noc(C)c1COc1ccc(C(=O)Nc2cnn(C)c2)cn1 [Example 23, 6-((3-Butyl-5-methyl-isoxazol-4-yl)methoxy)-N-(1-methyl-1H-pyrazol-4-yl)-nicotinamide] | 2.2
9 | CCCCc1noc(C)c1CNc1ccc(C(=O)NC2CCOCC2)cn1 [Example 44, 6-[((3-Butyl-5-methyl-isoxazol-4-yl)methyl)-amino]-N-(tetrahydro-pyran-4-yl)-nicotinamide] | 67.6

Next, values leading:

Row | Ki [nM] | SMILES
10 | 5.2 | Cc1onc(C2CCCCC2)c1COc1ccc(C(=O)NC2CCOCC2)cn1 [Example 33, 6-((3-Cyclohexyl-5-methyl-isoxazol-4-yl)methoxy)-N-(tetrahydro-pyran-4-yl)-nicotinamide]
11 | 34.5 | CCCCc1noc(C)c1COc1ccc(C(=O)N2CCC2)cn1 [Example 22, Azetidin-1-yl-[6-((3-butyl-5-methyl-isoxazol-4-yl)methoxy)-pyridin-3-yl]-methanone]
12 | 77 | CCCCc1noc(C)c1CNc1ccc(C(=O)NC(C)CO)cn1 (centres unmarked) [Example 43, 6-[((3-Butyl-5-methyl-isoxazol-4-yl)methyl)-amino]-N-(2-hydroxy-1-methyl-ethyl)-nicotinamide]
13 | 5.7 | CCCCc1noc(C)c1COc1ccc(C(=O)NC(CO)CO)cn1 [Example 15, 6-((3-Butyl-5-methyl-isoxazol-4-yl)methoxy)-N-(2-hydroxy-1-hydroxymethyl-ethyl)-nicotinamide]
14 | 4.7 | Cc1onc(C2CCCCC2)c1COc1ccc(C(=O)NC2CC2)cn1 [Example 32, 6-((3-Cyclohexyl-5-methyl-isoxazol-4-yl)methoxy)-N-cyclopropyl-nicotinamide]
15 | 3.1 | CCCCc1noc(C)c1COc1ccc(C(=O)NC(C)CO)cn1 (racemic) [Example 9, Rac-6-((3-Butyl-5-methyl-isoxazol-4-yl)methoxy)-N-(2-hydroxy-1-methyl-ethyl)-nicotinamide]
16 | 46 | CCCc1noc(C)c1COc1ccc(C(=O)NC(C)C)cn1 [Example 1, N-Isopropyl-6-((5-methyl-3-propyl-isoxazol-4-yl)methoxy)-nicotinamide]
17 | 4.3 | Cc1onc(C2CCCCC2)c1COc1ccc(C(=O)NC(C)C)cn1 [Example 31, 6-((3-Cyclohexyl-5-methyl-isoxazol-4-yl)methoxy)-N-isopropyl-nicotinamide]
